Values quoted from earlier work, collected in patent US20090247493A1, “Regimens for Treatment of Conditions Related to Estrogen Deficiency” (Duramed Pharmaceuticals, Inc., priority 2006, published 2009).

Conditions: in a contraceptive regimen

C[C@]12CC[C@@H]3c4ccc(O)cc4CC[C@H]3[C@@H]1CC[C@@H]2O [17β-estradiol]
dose roughly equivalent to 30 μg of ethinyl estradiol: about 2,000 μg

C#C[C@]1(O)CC[C@H]2[C@@H]3CCc4cc(OC)ccc4[C@H]3CC[C@@]21C [mestranol]
dose roughly equivalent to 30 μg of ethinyl estradiol: about 60 μg
